PMC11062922 (Nature Chemical Biology, 2023)

How the values were obtained:
EPHA1 = molecular target: T1, EPHA1 (Homo sapiens, UniProt P21709); assay: Kinobeads two-dose competition binding: EPHA1; conditions: read-out: Lestaurtinib Drugmatrix value, Gene Name EPHA1
T1 construct: endogenous in cells
T1 sequence (P21709 26-976): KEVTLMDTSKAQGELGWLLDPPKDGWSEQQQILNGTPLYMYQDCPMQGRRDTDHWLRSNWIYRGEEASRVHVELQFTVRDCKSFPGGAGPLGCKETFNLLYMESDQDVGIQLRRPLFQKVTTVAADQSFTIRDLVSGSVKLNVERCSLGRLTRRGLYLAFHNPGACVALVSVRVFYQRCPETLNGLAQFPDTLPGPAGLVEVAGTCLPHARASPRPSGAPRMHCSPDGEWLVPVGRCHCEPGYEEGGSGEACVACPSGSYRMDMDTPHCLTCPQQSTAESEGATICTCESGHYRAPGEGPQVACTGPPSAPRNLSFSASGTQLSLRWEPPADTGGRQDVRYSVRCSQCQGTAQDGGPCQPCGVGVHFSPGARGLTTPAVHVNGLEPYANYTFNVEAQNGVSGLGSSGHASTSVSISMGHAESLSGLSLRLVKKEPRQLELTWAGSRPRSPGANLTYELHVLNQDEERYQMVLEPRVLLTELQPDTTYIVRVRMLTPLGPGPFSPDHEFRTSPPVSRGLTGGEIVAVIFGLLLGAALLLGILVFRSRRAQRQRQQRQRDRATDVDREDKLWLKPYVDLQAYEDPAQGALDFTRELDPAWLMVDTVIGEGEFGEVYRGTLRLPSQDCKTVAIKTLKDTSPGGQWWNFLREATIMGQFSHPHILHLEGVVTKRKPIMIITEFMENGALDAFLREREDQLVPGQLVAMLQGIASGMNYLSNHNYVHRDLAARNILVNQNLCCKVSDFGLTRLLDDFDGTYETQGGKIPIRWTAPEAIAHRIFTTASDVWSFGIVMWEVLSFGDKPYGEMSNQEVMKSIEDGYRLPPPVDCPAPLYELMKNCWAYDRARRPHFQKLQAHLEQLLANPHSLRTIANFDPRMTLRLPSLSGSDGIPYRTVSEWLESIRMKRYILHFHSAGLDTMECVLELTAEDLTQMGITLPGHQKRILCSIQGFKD

FLT4 = molecular target: T2, FLT4 (Homo sapiens, UniProt P35916); assay: Kinobeads two-dose competition binding: FLT4; conditions: read-out: Lestaurtinib Drugmatrix value, Gene Name FLT4
T2 construct: endogenous in cells

PHKG2 = molecular target: T3, PHKG2 (Homo sapiens, UniProt P15735); assay: Kinobeads competition binding, Lestaurtinib control replicates: PHKG2; conditions: read-out: Lestaurtinib Drugmatrix value; Gene Name PHKG2; one column per experiment number and replicate (R1-R3)
T3 construct: a mixture of lysates from five cancer cell lines; endogenous in cells
T3 sequence (P15735 1-406): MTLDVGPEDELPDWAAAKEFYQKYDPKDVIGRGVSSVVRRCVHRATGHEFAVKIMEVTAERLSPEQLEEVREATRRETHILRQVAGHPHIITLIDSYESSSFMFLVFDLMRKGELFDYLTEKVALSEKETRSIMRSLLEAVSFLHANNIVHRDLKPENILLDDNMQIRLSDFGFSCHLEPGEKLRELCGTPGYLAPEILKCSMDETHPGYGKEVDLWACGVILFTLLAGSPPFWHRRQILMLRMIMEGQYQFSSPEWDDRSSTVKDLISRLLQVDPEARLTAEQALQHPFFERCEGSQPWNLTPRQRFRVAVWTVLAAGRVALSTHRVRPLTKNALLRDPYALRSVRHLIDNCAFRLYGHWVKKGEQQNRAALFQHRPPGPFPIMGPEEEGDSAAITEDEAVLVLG

SPR = molecular target: T4, SPR (Homo sapiens, UniProt P35270); assay: Kinobeads full dose-response competition binding: SPR; conditions: Gene Name SPR
T4 construct: endogenous in cells

PAK4 = molecular target: T5, PAK4 (Homo sapiens, UniProt O96013); assay: Kinobeads full dose-response competition binding: PAK4; conditions: Gene Name PAK4; for Relative Intensity 0.3nM: 0.3nM compound; for Relative Intensity 0.3nM / Relative Intensity 1nM / Relative Intensity 3nM / Relative Intensity 10nM / Relative Intensity 30nM / Relative Intensity 100nM / Relative Intensity 300nM / Relative Intensity 1000nM: DMSO = 1; for Relative Intensity 1nM: 1nM compound; for Relative Intensity 3nM: 3nM compound; for Relative Intensity 10nM: 10nM compound; for Relative Intensity 30nM: 30nM compound; for Relative Intensity 100nM: 100nM compound; for Relative Intensity 300nM: 300nM compound; for Relative Intensity 1000nM: 1000nM compound
T5 construct: a mixture of lysates from five cancer cell lines; endogenous in cells

GSK3A = molecular target: T6, GSK3A (Homo sapiens, UniProt P49840); assay: Kinobeads full dose-response competition binding: GSK3A; conditions: Gene Name GSK3A; for Relative Intensity 0.3nM: 0.3nM compound; for Relative Intensity 0.3nM / Relative Intensity 1nM / Relative Intensity 3nM / Relative Intensity 10nM / Relative Intensity 30nM / Relative Intensity 100nM / Relative Intensity 300nM / Relative Intensity 1000nM: DMSO = 1; for Relative Intensity 1nM: 1nM compound; for Relative Intensity 3nM: 3nM compound; for Relative Intensity 10nM: 10nM compound; for Relative Intensity 30nM: 30nM compound; for Relative Intensity 100nM: 100nM compound; for Relative Intensity 300nM: 300nM compound; for Relative Intensity 1000nM: 1000nM compound; for Kd: EC50 with Correction, read-out: apparent Kd; for Kd / EC50: doses in nM; for EC50: eight-dose curve fit
T6 construct: endogenous in cells

GSK3B = molecular target: T7, GSK3B (Homo sapiens, UniProt P49841); assay: Kinobeads full dose-response competition binding: GSK3B; conditions: Gene Name GSK3B; for Relative Intensity 0.3nM: 0.3nM compound; for Relative Intensity 0.3nM / Relative Intensity 1nM / Relative Intensity 3nM / Relative Intensity 10nM / Relative Intensity 30nM / Relative Intensity 100nM / Relative Intensity 300nM / Relative Intensity 1000nM: DMSO = 1; for Relative Intensity 1nM: 1nM compound; for Relative Intensity 3nM: 3nM compound; for Relative Intensity 10nM: 10nM compound; for Relative Intensity 30nM: 30nM compound; for Relative Intensity 100nM: 100nM compound; for Relative Intensity 300nM: 300nM compound; for Relative Intensity 1000nM: 1000nM compound; for Kd: EC50 with Correction, read-out: apparent Kd; for Kd / EC50: doses in nM; for EC50: eight-dose curve fit
T7 construct: endogenous in cells

PRKX = molecular target: T8, PRKX (Homo sapiens, UniProt P51817); assay: Kinobeads full dose-response competition binding: PRKX; conditions: Gene Name PRKX; for Relative Intensity 0.3nM: 0.3nM compound; for Relative Intensity 0.3nM / Relative Intensity 1nM / Relative Intensity 3nM / Relative Intensity 10nM / Relative Intensity 30nM / Relative Intensity 100nM / Relative Intensity 300nM / Relative Intensity 1000nM: DMSO = 1; for Relative Intensity 1nM: 1nM compound; for Relative Intensity 3nM: 3nM compound; for Relative Intensity 10nM: 10nM compound; for Relative Intensity 30nM: 30nM compound; for Relative Intensity 100nM: 100nM compound; for Relative Intensity 300nM: 300nM compound; for Relative Intensity 1000nM: 1000nM compound; for Kd: EC50 with Correction, read-out: apparent Kd; for Kd / EC50: doses in nM; for EC50: eight-dose curve fit
T8 construct: endogenous in cells
T8 sequence (P51817 1-358): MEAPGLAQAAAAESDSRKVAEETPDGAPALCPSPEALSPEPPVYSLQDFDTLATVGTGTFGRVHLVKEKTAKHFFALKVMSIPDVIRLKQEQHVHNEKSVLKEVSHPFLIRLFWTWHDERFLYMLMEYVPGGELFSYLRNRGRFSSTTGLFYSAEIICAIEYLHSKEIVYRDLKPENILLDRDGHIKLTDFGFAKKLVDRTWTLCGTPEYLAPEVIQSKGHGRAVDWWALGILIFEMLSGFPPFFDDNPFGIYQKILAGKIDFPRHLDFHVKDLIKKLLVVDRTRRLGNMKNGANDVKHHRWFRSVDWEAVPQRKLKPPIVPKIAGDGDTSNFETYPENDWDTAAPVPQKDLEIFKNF

[1] = EC50 with Correction, doses in nM, read-out: apparent Kd
[2] = eight-dose curve fit, doses in nM

T7 sequence (P49841 whole entry): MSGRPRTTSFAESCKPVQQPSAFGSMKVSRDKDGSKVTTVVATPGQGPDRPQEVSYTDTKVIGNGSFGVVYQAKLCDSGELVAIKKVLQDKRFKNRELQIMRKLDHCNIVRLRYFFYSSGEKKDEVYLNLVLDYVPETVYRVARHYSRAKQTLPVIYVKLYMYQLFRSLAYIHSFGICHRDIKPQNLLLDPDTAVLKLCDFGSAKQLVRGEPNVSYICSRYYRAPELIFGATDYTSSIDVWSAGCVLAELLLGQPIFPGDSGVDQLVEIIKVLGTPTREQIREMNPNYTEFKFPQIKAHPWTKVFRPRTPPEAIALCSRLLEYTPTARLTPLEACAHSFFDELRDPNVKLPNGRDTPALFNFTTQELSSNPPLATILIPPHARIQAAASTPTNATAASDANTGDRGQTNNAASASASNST
T6 sequence (P49840 whole entry): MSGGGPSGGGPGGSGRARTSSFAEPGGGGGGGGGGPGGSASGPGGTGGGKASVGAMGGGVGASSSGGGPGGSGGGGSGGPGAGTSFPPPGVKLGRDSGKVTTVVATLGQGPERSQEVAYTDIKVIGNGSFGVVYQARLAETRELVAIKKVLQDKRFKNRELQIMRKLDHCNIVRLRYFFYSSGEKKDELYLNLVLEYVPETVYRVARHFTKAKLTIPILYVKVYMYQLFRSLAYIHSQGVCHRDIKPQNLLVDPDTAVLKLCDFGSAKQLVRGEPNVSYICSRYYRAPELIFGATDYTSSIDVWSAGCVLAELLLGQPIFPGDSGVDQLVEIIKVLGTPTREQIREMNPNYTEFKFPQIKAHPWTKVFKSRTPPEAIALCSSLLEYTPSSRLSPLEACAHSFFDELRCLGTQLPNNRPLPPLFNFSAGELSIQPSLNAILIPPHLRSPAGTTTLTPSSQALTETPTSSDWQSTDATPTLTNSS
T5 sequence (O96013 whole entry): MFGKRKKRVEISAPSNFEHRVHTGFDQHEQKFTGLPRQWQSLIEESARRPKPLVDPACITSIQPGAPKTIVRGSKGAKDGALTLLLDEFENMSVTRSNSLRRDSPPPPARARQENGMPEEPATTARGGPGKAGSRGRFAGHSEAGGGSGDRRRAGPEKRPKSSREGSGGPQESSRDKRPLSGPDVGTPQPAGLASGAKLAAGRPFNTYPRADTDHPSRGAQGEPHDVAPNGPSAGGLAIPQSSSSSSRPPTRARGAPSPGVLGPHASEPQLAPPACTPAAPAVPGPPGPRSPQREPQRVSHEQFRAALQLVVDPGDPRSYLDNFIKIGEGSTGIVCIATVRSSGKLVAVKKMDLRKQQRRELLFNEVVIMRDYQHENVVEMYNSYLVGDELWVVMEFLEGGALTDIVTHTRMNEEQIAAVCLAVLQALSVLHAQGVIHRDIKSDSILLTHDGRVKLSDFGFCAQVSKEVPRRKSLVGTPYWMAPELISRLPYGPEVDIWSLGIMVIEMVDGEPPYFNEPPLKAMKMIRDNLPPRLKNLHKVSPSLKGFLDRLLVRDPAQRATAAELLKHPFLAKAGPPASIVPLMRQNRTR
T4 sequence (P35270 whole entry): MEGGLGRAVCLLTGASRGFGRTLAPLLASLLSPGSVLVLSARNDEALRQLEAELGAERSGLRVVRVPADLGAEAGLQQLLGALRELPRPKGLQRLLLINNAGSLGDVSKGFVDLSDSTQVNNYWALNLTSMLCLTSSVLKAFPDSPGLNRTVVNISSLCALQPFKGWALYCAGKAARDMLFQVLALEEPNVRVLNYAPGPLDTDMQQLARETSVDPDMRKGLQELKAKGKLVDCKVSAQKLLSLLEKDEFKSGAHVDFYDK
T2 sequence (P35916 25-1363): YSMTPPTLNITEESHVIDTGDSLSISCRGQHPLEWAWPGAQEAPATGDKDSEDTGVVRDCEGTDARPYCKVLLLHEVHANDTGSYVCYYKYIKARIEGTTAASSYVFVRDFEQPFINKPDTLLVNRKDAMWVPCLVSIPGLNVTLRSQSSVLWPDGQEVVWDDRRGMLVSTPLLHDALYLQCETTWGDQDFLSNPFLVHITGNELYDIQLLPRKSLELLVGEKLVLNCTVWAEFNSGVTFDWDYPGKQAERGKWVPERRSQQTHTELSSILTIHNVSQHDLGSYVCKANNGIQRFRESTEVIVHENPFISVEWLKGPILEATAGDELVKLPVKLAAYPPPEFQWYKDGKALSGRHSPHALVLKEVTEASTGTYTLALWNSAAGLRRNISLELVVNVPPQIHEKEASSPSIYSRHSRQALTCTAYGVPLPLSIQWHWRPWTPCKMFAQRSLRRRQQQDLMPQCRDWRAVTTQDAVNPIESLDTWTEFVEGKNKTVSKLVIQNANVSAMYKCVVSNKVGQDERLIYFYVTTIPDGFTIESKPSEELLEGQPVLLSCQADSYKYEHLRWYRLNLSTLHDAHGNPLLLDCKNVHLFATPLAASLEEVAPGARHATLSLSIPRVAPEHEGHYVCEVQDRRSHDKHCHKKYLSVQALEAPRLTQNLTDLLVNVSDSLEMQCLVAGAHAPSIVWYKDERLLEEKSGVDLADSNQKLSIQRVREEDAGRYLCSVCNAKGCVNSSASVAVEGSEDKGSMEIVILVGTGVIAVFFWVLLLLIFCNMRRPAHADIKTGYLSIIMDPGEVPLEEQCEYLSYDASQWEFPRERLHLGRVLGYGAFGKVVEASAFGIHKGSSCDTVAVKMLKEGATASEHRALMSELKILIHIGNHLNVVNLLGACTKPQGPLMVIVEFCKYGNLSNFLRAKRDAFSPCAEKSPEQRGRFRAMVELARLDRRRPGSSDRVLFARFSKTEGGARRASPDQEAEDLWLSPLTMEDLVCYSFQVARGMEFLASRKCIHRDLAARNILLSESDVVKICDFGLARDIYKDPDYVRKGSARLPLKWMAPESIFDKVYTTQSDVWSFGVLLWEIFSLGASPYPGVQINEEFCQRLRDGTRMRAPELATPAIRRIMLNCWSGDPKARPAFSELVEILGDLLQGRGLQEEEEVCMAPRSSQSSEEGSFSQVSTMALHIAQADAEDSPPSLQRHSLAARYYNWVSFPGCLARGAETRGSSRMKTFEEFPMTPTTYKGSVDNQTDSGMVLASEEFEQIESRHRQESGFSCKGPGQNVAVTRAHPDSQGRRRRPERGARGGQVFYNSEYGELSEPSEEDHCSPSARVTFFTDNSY

`C[C@]12O[C@H](C[C@]1(O)CO)n1c3ccccc3c3c4c(c5c6ccccc6n2c5c31)CNC4=O` [Lestaurtinib] showed a potency estimated from few doses (EPHA1) of 297 nM, a potency estimated from few doses (FLT4) of 396 nM and a potency estimated from few doses (PHKG2) of 321 nM.

In the case of `NCc1ccc(-c2nc(-c3ccncc3)c(-c3ccc(Cl)c(O)c3)[nH]2)cc1` [SB-476429-A], the “Relative Intensity 0.3nM” value (SPR; 0.3nM compound, DMSO = 1) is reported as 0.9627, the “Relative Intensity 1nM” value (SPR; 1nM compound, DMSO = 1) is reported as 0.9101 and the “Relative Intensity 3nM” value (SPR; 3nM compound, DMSO = 1) is reported as 0.8696. For the same compound, the “Relative Intensity 10nM” value (SPR; 10nM compound, DMSO = 1) was 0.7693, the “Relative Intensity 30nM” value (SPR; 30nM compound, DMSO = 1) was 0.5216 and the “Relative Intensity 100nM” value (SPR; 100nM compound, DMSO = 1) was 0.1442. The “Relative Intensity 300nM” value (SPR; 300nM compound, DMSO = 1) was 0.02935, the “Relative Intensity 1000nM” value (SPR; 1000nM compound, DMSO = 1) was 0.01082 and the Kd (SPR; [1]) was 32.8 nM. The EC50 (SPR; [2]) was 32.8 nM.

With `CCn1c(-c2nonc2N)nc2c(C#CC(C)(C)O)nc(OCCN)cc21` [GSK902056A] the “Relative Intensity 0.3nM” value (PAK4) was 1.05, the “Relative Intensity 1nM” value (PAK4) was 1.027 and the “Relative Intensity 3nM” value (PAK4) was 1.044. For the same compound, the “Relative Intensity 10nM” value (PAK4) was 0.9586, the “Relative Intensity 30nM” value (PAK4) was 0.8645 and the “Relative Intensity 100nM” value (PAK4) was 0.8782. For the same compound, the “Relative Intensity 300nM” value (PAK4) was 0.7175, the “Relative Intensity 1000nM” value (PAK4) was 0.4475 and the “Relative Intensity 0.3nM” value (GSK3A) was 0.9894. The “Relative Intensity 1nM” value (GSK3A) was 1.046, the “Relative Intensity 3nM” value (GSK3A) was 1.057 and the “Relative Intensity 10nM” value (GSK3A) was 0.9554. For the same compound, the “Relative Intensity 30nM” value (GSK3A) was 0.7994, the “Relative Intensity 100nM” value (GSK3A) was 0.6557 and the “Relative Intensity 300nM” value (GSK3A) was 0.3972. For the same compound, the “Relative Intensity 1000nM” value (GSK3A) was 0.1852, the Kd (GSK3A) was 164 nM and the EC50 (GSK3A) was 173 nM. The “Relative Intensity 0.3nM” value (GSK3B) was 1.05, the “Relative Intensity 1nM” value (GSK3B) was 1.092 and the “Relative Intensity 3nM” value (GSK3B) was 1.084. The “Relative Intensity 10nM” value (GSK3B) was 0.9805, the “Relative Intensity 30nM” value (GSK3B) was 0.9007 and the “Relative Intensity 100nM” value (GSK3B) was 0.8389. For the same compound, the “Relative Intensity 300nM” value (GSK3B) was 0.5163, the “Relative Intensity 1000nM” value (GSK3B) was 0.2905 and the Kd (GSK3B) was 288 nM. For the same compound, the EC50 (GSK3B) was 296 nM, the “Relative Intensity 0.3nM” value (PRKX) was 0.9197 and the “Relative Intensity 1nM” value (PRKX) was 0.9321. The “Relative Intensity 3nM” value (PRKX) was 1.015, the “Relative Intensity 10nM” value (PRKX) was 0.9379 and the “Relative Intensity 30nM” value (PRKX) was 0.8892. The “Relative Intensity 100nM” value (PRKX) was 0.6426, the “Relative Intensity 300nM” value (PRKX) was 0.2553 and the “Relative Intensity 1000nM” value (PRKX) was 0.1464. For the same compound, the Kd (PRKX) was 127 nM and the EC50 (PRKX) was 127 nM.

For `CCn1c(-c2nonc2N)nc2c(C#CC(C)(C)O)nc(OCCNC)cc21` [GSK949675A], the “Relative Intensity 0.3nM” value (PAK4) was 1.024, the “Relative Intensity 1nM” value (PAK4) was 1.092 and the “Relative Intensity 3nM” value (PAK4) was 1.039. The “Relative Intensity 10nM” value (PAK4) was 0.9797, the “Relative Intensity 30nM” value (PAK4) was 0.9918 and the “Relative Intensity 100nM” value (PAK4) was 0.907. The “Relative Intensity 300nM” value (PAK4) was 0.6926, the “Relative Intensity 1000nM” value (PAK4) was 0.4818 and the Kd (PAK4; [1]) was 218 nM. For the same compound, the EC50 (PAK4; [2]) was 316 nM, the “Relative Intensity 0.3nM” value (GSK3A) was 1.008 and the “Relative Intensity 1nM” value (GSK3A) was 1.091. For the same compound, the “Relative Intensity 3nM” value (GSK3A) was 1.095, the “Relative Intensity 10nM” value (GSK3A) was 0.9753 and the “Relative Intensity 30nM” value (GSK3A) was 1.009. The “Relative Intensity 100nM” value (GSK3A) was 0.7508, the “Relative Intensity 300nM” value (GSK3A) was 0.4472 and the “Relative Intensity 1000nM” value (GSK3A) was 0.237. The Kd (GSK3A) was 104 nM, the EC50 (GSK3A) was 167 nM and the “Relative Intensity 0.3nM” value (GSK3B) was 0.987. The “Relative Intensity 1nM” value (GSK3B) was 0.9621, the “Relative Intensity 3nM” value (GSK3B) was 1.1 and the “Relative Intensity 10nM” value (GSK3B) was 0.9042. For the same compound, the “Relative Intensity 30nM” value (GSK3B) was 0.9241, the “Relative Intensity 100nM” value (GSK3B) was 0.7846 and the “Relative Intensity 300nM” value (GSK3B) was 0.5456. The “Relative Intensity 1000nM” value (GSK3B) was 0.3036, the Kd (GSK3B) was 171 nM and the EC50 (GSK3B) was 322 nM. The “Relative Intensity 0.3nM” value (PRKX) was 1.295, the “Relative Intensity 1nM” value (PRKX) was 1.2278 and the “Relative Intensity 3nM” value (PRKX) was 1.244. The “Relative Intensity 10nM” value (PRKX) was 1.16, the “Relative Intensity 30nM” value (PRKX) was 1.169 and the “Relative Intensity 100nM” value (PRKX) was 0.9393. For the same compound, the “Relative Intensity 300nM” value (PRKX) was 0.5982, the “Relative Intensity 1000nM” value (PRKX) was 0.3002 and the Kd (PRKX) was 221 nM. It also gave an EC50 (PRKX) of 221 nM.
